The target of the test is human FXR (NR1H4) (Homo sapiens (Human), UniProt Q96RI1). Put plainly: Human FXR (NR1H4) Assay (Gal4 promoter driven luciferase reporter, Indigo Bioscience kit IB00601). The format is cell-based. The settings on record: for Efficacy (%): efficacy normalized to CDCA set as 100%; for pEC50: potency ranges. An excerpt: Assays Human FXR (NR1H4) Assay
Determination of a ligand mediated Gal4 promoter driven transactivation quantify ligand binding mediated activation of FXR. FXR Reporter Assay kit purchased from Indigo Bioscience (Catalogue number: IB00601) to determine the potency and efficacy of compound developed by Enanta that can induce FXR activation. The principle application of this reporter assay system is to quantify functional activity of human FXR. The assay utilizes non-human mammalian cells, CHO (Chinese hamster ovary) cells engineered to express human NR1H4 protein (referred to as FXR). Reporter cells also incorporate the cDNA encoding beetle luciferase which catalyzes the substrates and yields photon emission. Luminescence intensity of the reaction is quantified using a plate-reading luminometer, Envision. Reporter Cells include the luciferase reporter gene functionally linked to an FXR responsive promoter. Thus, quantifying changes in luciferase expression in the treated reporter cells provides a sensitive surrogate measure of the changes in FXR activity. […] The assay is according to the manufacturer's instructions. In brief, the assay was performed in white, 96 well plates using final volume of 100 ul containing cells with different doses of compounds. Retrieve Reporter Cells from −80° C. storage. Perform a rapid thaw of the frozen cells by transferring a 10 ml volume of 37° C. cell recovery medium into the tube of frozen cells. Recap the tube of Reporter Cells and immediately place it in a 37° C. water bath for 5-10 minutes. Retrieve the tube of Reporter Cell Suspension from the water bath. Sanitize the outside surface of the tube with a 70% alcohol swab, and then transfer it into the cell culture hood. Dispense 90 μl of cell suspension into each well of the 96-well Assay Plate. Transfer the plate into 37° C. incubator, allowing the cells adherent to the bottom of the well. Dilute compounds in Dilution Plate (DP), and administrate to cells at Assay Plate (AP). DMSO content of the samples was kept at 0.2%. Cells were incubated for additional 22 hours before luciferase activities were measured. Thirty minutes before intending to quantify FXR activity, remove Detection Substrate and Detection Buffer from the refrigerator and place them in a low-light area so that they may equilibrate to room temperature. Remove the plate's lid and discard all media contents by ejecting it into an appropriate waste container. Gently tap the inverted plate onto a clean absorbent paper towel to remove residual droplets. Cells will remain tightly adhered to well bottoms. Add 100 μl of luciferase detection reagent to each well of the assay plate. Allow the assay plate to rest at room temperature for at least 5 minutes following the addition of LDR. Set the instrument (Envision) to perform a single 5 second “plate shake” prior to reading the first assay well. Read time may be 0.5 second (500 mSec) per well.
(In general: In a reporter assay the amount or activity of a reporter protein is the signal.)

pEC50: −log10 of the molar value.

human FXR (NR1H4), sequence (Q96RI1 whole entry, the tested form may be a part): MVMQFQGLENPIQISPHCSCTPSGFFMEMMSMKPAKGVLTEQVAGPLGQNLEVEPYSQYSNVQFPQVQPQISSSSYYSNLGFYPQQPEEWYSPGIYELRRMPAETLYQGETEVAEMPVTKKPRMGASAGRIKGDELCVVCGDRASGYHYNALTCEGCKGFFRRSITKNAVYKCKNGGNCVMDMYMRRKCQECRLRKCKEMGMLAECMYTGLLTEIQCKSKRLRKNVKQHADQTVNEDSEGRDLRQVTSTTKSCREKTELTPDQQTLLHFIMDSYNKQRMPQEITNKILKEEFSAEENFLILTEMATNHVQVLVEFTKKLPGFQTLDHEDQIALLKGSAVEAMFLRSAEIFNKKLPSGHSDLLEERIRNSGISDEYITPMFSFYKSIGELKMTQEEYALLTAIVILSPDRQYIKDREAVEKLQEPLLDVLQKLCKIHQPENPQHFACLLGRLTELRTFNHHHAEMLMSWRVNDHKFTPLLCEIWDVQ

For `CC[C@H]1[C@@H](O)[C@@H]2[C@H](CC[C@]3(C)[C@@H]([C@H](C)CCNC(=O)NS(=O)(=O)c4ccc(-c5ccno5)cc4OC)CC[C@@H]23)[C@@]2(C)CC[C@@H](O)C[C@@H]12` [Example 73], the “Efficacy (%)” value came out at 444% and the pEC50 was 6.00 to 7.00.

Turning to `CC[C@H]1[C@@H](O)[C@@H]2[C@H](CC[C@]3(C)[C@@H]([C@H](C)CCNC(=O)NS(=O)(=O)c4ccc5c(c4)CCC5)CC[C@@H]23)[C@@]2(C)CC[C@@H](O)C[C@@H]12` [Example 55], the “Efficacy (%)” value came to 271% and the pEC50 was > 7.00.

Take `CC[C@H]1[C@@H](O)[C@@H]2[C@H](CC[C@]3(C)[C@@H]([C@H](C)CCNC(=O)NS(=O)(=O)c4ccc(F)cc4)CC[C@@H]23)[C@@]2(C)CC[C@@H](O)C[C@@H]12` [Example 94]: the “Efficacy (%)” value was determined as 361% and the pEC50 is > 7.00.

`CC[C@H]1[C@@H](O)[C@@H]2[C@H](CC[C@]3(C)[C@@H]([C@H](C)CCNC(=O)NS(=O)(=O)c4ccc5c(c4)OCCO5)CC[C@@H]23)[C@@]2(C)CC[C@@H](O)C[C@@H]12` [Example 58]: the “Efficacy (%)” value is listed as 307% and the pEC50 was > 7.00.

Regarding `CC[C@H]1[C@@H](O)[C@@H]2[C@H](CC[C@]3(C)[C@@H]([C@H](C)CCNC(=O)NS(=O)(=O)c4ccc5c(c4)OCO5)CC[C@@H]23)[C@@]2(C)CC[C@@H](O)C[C@@H]12` [Example 23], the “Efficacy (%)” value worked out at 488% and the pEC50 is > 7.00.

Consider `CC[C@H]1[C@@H](O)[C@@H]2[C@H](CC[C@]3(C)[C@@H]([C@H](C)CCNC(=O)NS(=O)(=O)N(C)C)CC[C@@H]23)[C@@]2(C)CC[C@@H](O)C[C@@H]12` [Example 91], for which the “Efficacy (%)” value was determined as 399% and the pEC50 is > 7.00.

For `CC[C@H]1[C@@H](O)[C@@H]2[C@H](CC[C@]3(C)[C@@H]([C@H](C)CCNC(=O)NS(=O)(=O)N4CCN(C(C)(C)C)CC4)CC[C@@H]23)[C@@]2(C)CC[C@@H](O)C[C@@H]12` [Example 84], the “Efficacy (%)” value amounted to 351% and the pEC50 is 6.00 to 7.00.

Regarding `CC[C@H]1[C@@H](O)[C@@H]2[C@H](CC[C@]3(C)[C@@H]([C@H](C)CCNC(=O)NS(=O)(=O)c4cc(F)cc(F)c4)CC[C@@H]23)[C@@]2(C)CC[C@@H](O)C[C@@H]12` [Example 102], the “Efficacy (%)” value was determined as 210% and the negative-log EC50 (pEC50) is > 7.00.

For the compound `CC[C@H]1[C@@H](O)[C@@H]2[C@H](CC[C@]3(C)[C@@H]([C@H](C)CCNS(=O)(=O)CCC(=O)O)CC[C@@H]23)[C@@]2(C)CC[C@@H](O)C[C@@H]12` [Example 141], the “Efficacy (%)” value came to 16% and the pEC50 was 5.00 to 6.00.

In the case of `CC[C@H]1[C@@H](O)[C@@H]2[C@H](CC[C@]3(C)[C@@H]([C@H](C)CNC(=O)NS(=O)(=O)c4ccc(-c5ccccc5)s4)CC[C@@H]23)[C@@]2(C)CC[C@@H](O)C[C@@H]12` [Example 114], the “Efficacy (%)” value came out at 322% and the pEC50 is > 7.00.

Take `CC[C@H]1[C@@H](O)[C@@H]2[C@H](CC[C@]3(C)[C@@H]([C@H](C)CCCCNS(=O)(=O)C(C)(C)C)CC[C@@H]23)[C@@]2(C)CC[C@@H](O)C[C@@H]12` [Example 136]: the “Efficacy (%)” value is 159% and the pEC50 is 5.00 to 6.00.

For `CC[C@H]1[C@@H](O)[C@@H]2[C@H](CC[C@]3(C)[C@@H]([C@H](C)CCCNS(=O)(=O)C(C)C)CC[C@@H]23)[C@@]2(C)CC[C@@H](O)C[C@@H]12` [Example 11], the “Efficacy (%)” value is given as 267% and the pEC50 was 5.00 to 6.00.

On to `CC[C@H]1[C@@H](O)[C@@H]2[C@H](CC[C@]3(C)[C@@H]([C@H](C)CCNC(=O)NS(=O)(=O)C[C@]45CCC(CC4=O)C5(C)C)CC[C@@H]23)[C@@]2(C)CC[C@@H](O)C[C@@H]12` [Example 60], for which the “Efficacy (%)” value is recorded as 346% and the pEC50 was > 7.00.

The pEC50 is the EC50 on a negative log10 scale, so that one unit is a factor of ten. Higher therefore signals a low EC50.

Source of the values: US10208081B2, “Bile acid derivatives as FXR/TGR5 agonists and methods of use thereof” (Enanta Pharmaceuticals, Inc., priority 2014, dated 2019).
